Test results from US20090081717A1, “Compositions and Methods For Signal Generation” (priority 2007, published 2009).
Like-named read-outs stand apart in the source and are kept apart here.

Tests used:
[1] = Chemiluminescence of indoxyl phosphate substrate solution with blank sample (no enzyme); type: biochemical; conditions: blank sample 0.1 M Tris, pH 9.0, no enzyme
alkaline phosphatase = conditions: 1×10^−12 moles alkaline phosphatase in 0.1 M Tris, pH 9.0, 45 sec at room temperature, measured 1 sec
Protocol: A substrate solution containing 0.8 mg/ml 3-indoxyl phosphate bis(2-amino-2-methyl-1,3-propanediol) salt (Biosynth International) and 0.4 mg/ml lucigenin (Sigma Aldrich) was prepared in 0.1 M Tris buffer, pH 9.0. 10 ul of the sample (blank (0.1 M Tris, pH 9.0 or 1×10^−12 moles alkaline phosphatase in 0.1 M Tris, pH 9.0) was added to plastic tubes. 50 ul of the substrate containing 0% DMSO, 0.1% DMSO (v/v), 1% DMSO) (v/v), 10% DMSO (v/v) and 20% DMSO (v/v) was added to respective tubes and water was added to the substrate in appropriate percentage as a control. The reaction was incubated for 45 sec at room temperature and chemiluminescence was measured for 1 sec using an Optocomp I (MGM) luminometer.

Structure (SMILES): CC(N)(CO)CO.CC(N)(CO)CO.O=P(O)(O)Oc1c[nH]c2ccccc12 [3-indoxyl phosphate bis(2-amino-2-methyl-1,3-propanediol) salt]
- Blank chemiluminescence ([1]; substrate with 0 vol % DMSO): 472 Relative light units
- Blank chemiluminescence ([1]; substrate with 0.1 vol % DMSO): 511 Relative light units
- Blank chemiluminescence ([1]; substrate with 1 vol % DMSO): 569 Relative light units
- Blank chemiluminescence ([1]; substrate with 10 vol % DMSO): 1214 Relative light units
- Blank chemiluminescence ([1]; substrate with 20 vol % DMSO): 1917 Relative light units
- Alkaline phosphatase chemiluminescence (alkaline phosphatase; substrate with 0 vol % DMSO): 895,068 Relative light unit
- Alkaline phosphatase chemiluminescence (alkaline phosphatase; substrate with 0.1 vol % DMSO): 899,207 Relative light unit
- Alkaline phosphatase chemiluminescence (alkaline phosphatase; substrate with 1 vol % DMSO): 1,101,369 Relative light unit
- Alkaline phosphatase chemiluminescence (alkaline phosphatase; substrate with 10 vol % DMSO): 1,909,745 Relative light unit
- Alkaline phosphatase chemiluminescence (alkaline phosphatase; substrate with 20 vol % DMSO): 2,375,681 Relative light unit
